“Also recorded” adds a separate entry of the source.
Assays:
LeCCD1a [1] = biological target: LeCCD1a (Solanum lycopersicum, UniProt Q6E4P5); assay: In vitro LeCCD1a enzyme assay (recombinant cell-free extract, colourimetric, apo-8′-carotenal substrate); format: biochemical, tomato (Solanum lycopersicum); details: for LeCCD1a (9,10/9′,10′) Inhibition @ 100 μM (%): 100 μM inhibitor; for LeCCD1a (9,10/9′,10′) Inhibition @ 100 μM (%) / IC50: E. coli cell extract with recombinant CCD; for inhibition at 100 µM: read-out: LeCCD1a (9,10/9′,10′) Inhibition @ 100 μM (%); for IC50: read-out: LeCCD1a (9,10/9′,10′) IC50
Procedure: In vitro LeCCD1a enzyme assay—We over-expressed LeCCD1a in E. coli, as a GST-fusion protein (supplemental methods). The in vitro assay of LeCCD1a was based on reported methods (37), and was carried out in a 200 μl total volume in a 96-well microtitre plate, with the signal detected at 485 nm. To prepare substrate solution for each assay, 5 μl of 4% (w/v in ethanol) apo-8′-carotenal (Sigma) was mixed with 25 μl of 4% (w/v in ethanol) β-octylglucoside (Sigma), the ethanol was then evaporated under nitrogen, and the residue dissolved in 150 μl PBS buffer containing 10 mM sodium ascorbate by incubation at 20° C. for 30 min. 50 μl of cell-free extract containing recombinant LeCCD1a was added, and the reactions monitored over 30 min at 20° C.
(§1) For the production of cell-free extracts of LeCCD1a and LeNCED1, cultures were grown to an OD of 0.6 at 37° C., then isopropyl β-D-1-thiogalactopyranoside (IPTG) was added to 0.2 mM and the cultures grown overnight at 20° C. The cells (200 ml cultures) were harvested by centrifugation (5000 rpm, 10 min) and the pellet re-suspended in 4 ml PBS, 0.1% Triton-X 100. Lysozyme was added to a final concentration of 25 μg ml^−1 and the solution incubated at room temperature for 15 min before sonication (3×30 s at 18Ω) on ice. The lysate was then centrifuged (13000 rpm, 15 min, 4° C.) and the supernatant used for the assay.
(§2) Specificity of inhibition in vitro for tomato genes LeNCED1 and LeCCD1a—In order to screen the inhibitors against enzymes which cleave carotenoids at the 9,10 position, we used the recombinant tomato LeCCD1a protein (44), because this type of enzyme can be studied using an in vitro colourimetric assay with β-apo-8′-carotenal as substrate (37). To establish the specificity of the inhibitors, they were also tested against the tomato LeNCED1 recombinant protein which cleaves 9-cis carotenoids at the 11,12 position (45). For this enzyme, the cleavage reaction was monitored by C18 reverse phase HPLC, using 9′-cis-neoxanthin as substrate.

LeNCED1 = biological target: T1, LeNCED1 (Solanum lycopersicum, UniProt O24023); assay: In vitro NCED enzyme assay (recombinant LeNCED1 cell-free extract, HPLC, 9′-cis-neoxanthin substrate); format: biochemical, tomato; details: for LeNCED1 (11,12) Inhibition @ 100 μM (%): 100 μM inhibitor, E. coli cell extract with recombinant CCD
T1 construct: made in house; host or cells: E. coli Rosetta (DE3); crude cell-free extract
Procedure: In vitro NCED enzyme assay—We over-expressed LeNCED1 in E. coli, as an N-terminal His6-fusion protein (supplemental methods). Cell-free extract containing recombinant LeNCED1 was prepared in 100 mM bis-tris buffer (pH 6.7). 15 μl extract was pre-activated by addition of iron(II) sulphate (20 mM, 1 μl) and ascorbic acid (20 mM, 1 μl) on ice for 2 min, prior to use. This aliquot of enzyme was then added to an assay (150 μl total volume) containing 100 mM bis-tris buffer (pH 6.7), 0.05% v/v Triton X-100, 1.0 mg/ml catalase, and 3 μg 9′-cis-neoxanthin. The 9′-cis-neoxanthin substrate was prepared as described in supplemental methods. The enzyme assay was incubated for 15 min in the dark at 20° C. Water (700 μl) was then added, and the products extracted with ethyl acetate (3×1 ml). The organic solvent was removed at reduced pressure, the residue was dissolved in methanol (200 μl), and then 100 μl was injected onto a Phenomenex C18 reverse phase HPLC column, and a gradient of 5-10% methanol in acetonitrile/0.05% triethylamine was applied at 0.5 ml/min over 20 min, detecting at 440 nm. NCED inhibition assays contained 1-100 μM inhibitor; inhibition was calculated from the product formation after 15 min, compared to a control assay with no inhibitor present.
as §1, §2

whole Arabidopsis plants = assay: Shoot branching in whole Arabidopsis plants grown in agar; format: in vivo; details: for unintended effects on whole Arabidopsis plants: applied to whole plants; for branching phenotype of whole plants (in words): plants grown under sterile conditions in agar
Procedure: Branching phenotypes of Arabidopsis plants grown in agar media for 45 days supplemented with inhibitor D6. Images are shown: (a) Col-0 (WT) without inhibitor; (b) max3-9 mutant without inhibitor; (c) Col-0 with 100 μM D6. The numbers (d) of rosette branches were quantified. Error bars represent standard error of the mean, n=6 to 12.
Stimulation of shoot branching in whole Arabidopsis plants—Inhibitors were also applied to Arabidopsis whole plants grown under sterile conditions in agar. […] Inhibitor treated plants were intermediate (mean of approximately 2 branches) and so partially mimicked max3-9 (FIG. 6d).

LeCCD1a [2] = assay: In vivo enzyme assay in β-carotene-producing E. coli expressing LeCCD1a; format: cell-based, Solanum lycopersicum; details: 100 μM inhibitor, 16 hours; FIG. 4
Source text: In vivo enzyme assays in E. coli—The genes of interest (supplemental Table S1) were cloned into the vector pET30c (Novagen) fused directly to the initial ATG codon with no tag, or into pGEX-4T such that the gene was fused to an N-terminal GST tag. All genes were full length except AtCCD7, which had the chloroplast signal sequence removed (supplemental methods). […] Therefore, this construct was used in subsequent assays. The plasmids were transferred to the E. coli expression strain BL21(DE3), harbouring pAC-BETA (38), and therefore producing β-carotene.
For each inhibitor assay, 2.5 ml LB media with the appropriate antibiotics (25 μg ml^−1 chloramphenicol and 50 μg ml^−1 kanamycin or 100 μg ml^−1 ampicillin) and 2.5 μM IPTG, was prepared. Inhibitors (0.1 M in 100% ethanol) were added to the media to a final concentration of 100 μM. The media was then inoculated with 0.25 ml of overnight culture (grown at 37° C. with the appropriate antibiotics) and incubated with shaking (200 rpm) at 28° C. for 16 hours. One ml of culture was harvested by microcentrifugation and resuspended thoroughly in 1 ml ethanol containing 0.2% Triton X-100. After vortexing, the extract was incubated at room temperature in the dark for 3 hours, again vortexed and then spun in a microcentrifuge for 5 min at 13000 rpm. The supernatant was removed and the O.D.453-O.D.550 was measured. The amount of β-carotene was calculated using a standard curve generated from a dilution series of β-carotene (Sigma) in ethanol with 0.2% Triton X-100; the absolute levels of β-carotene are shown in FIG. 8. The relative inhibition was calculated by the equation: (Ci−Cc)/(C1−Cc)×100, where Ci is the carotenoid level with inhibitor and CCD present, Cc is the level with CCD but without the inhibitor and C1 is the level in a strain where lacZ is expressed instead of the CCD, and no inhibitor is present. Thus the increase in β-carotene due to inhibition of the CCD […] was expressed relative to the maximum possible β-carotene content when CCD is absent (C1−Cc).
In vivo activity of inhibitors applied to E. coli strains expressing CCDs—Coloured E. coli strains that produce various carotenoids can be constructed by expression of enzymes for carotenoid synthesis (26). Upon co-expression of the appropriate CCD, the bacteria lose their colour due to cleavage of the carotenoids to colourless products (4,6,27). This technique was employed here to further explore the specificity of inhibitors, and to test their activity in vivo. The level of carotenoid in each CCD-expressing strain was compared to the level of the carotenoid in a control strain producing β-carotene but lacking any CCD gene. The difference in the carotenoid levels gave a measure of CCD activity, and inhibition of this activity was measured by addition of inhibitors to the growing medium.
The inhibitors were tested against four β-carotene-producing E. coli strains (supplemental Table S1). Three of the strains expressed highly divergent CCDs that cleave at the 9,10 position: AtCCD7 from Arabidopsis (21) and MmBCO2 from mouse (6) which both cleave at a single site (9,10 or 9′,10′ but not both), and the tomato enzyme LeCCD1a (44) which cleaves at both sites in the same substrate molecule (9,10/9′,10′ activity). The fourth strain expressed another mouse CCD, MmBCO1 (47), which cleaves centrally at 15,15′. […]

Chain of LeCCD1a (Solanum lycopersicum, UniProt Q6E4P5) (Q6E4P5 1-545): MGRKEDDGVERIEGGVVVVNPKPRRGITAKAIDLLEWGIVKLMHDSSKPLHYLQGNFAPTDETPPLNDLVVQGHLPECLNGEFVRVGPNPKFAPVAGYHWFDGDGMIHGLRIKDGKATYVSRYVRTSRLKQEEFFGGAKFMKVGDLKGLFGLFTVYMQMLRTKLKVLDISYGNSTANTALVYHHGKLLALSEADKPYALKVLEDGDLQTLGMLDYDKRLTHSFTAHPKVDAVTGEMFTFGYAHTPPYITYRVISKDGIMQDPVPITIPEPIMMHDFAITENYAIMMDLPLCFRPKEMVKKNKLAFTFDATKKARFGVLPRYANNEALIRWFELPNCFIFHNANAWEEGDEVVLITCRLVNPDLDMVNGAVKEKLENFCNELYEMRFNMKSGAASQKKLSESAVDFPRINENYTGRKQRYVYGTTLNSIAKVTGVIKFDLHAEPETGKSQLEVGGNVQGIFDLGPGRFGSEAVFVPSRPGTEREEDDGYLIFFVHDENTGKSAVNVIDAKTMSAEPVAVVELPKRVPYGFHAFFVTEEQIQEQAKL
T1 sequence (O24023 17-605): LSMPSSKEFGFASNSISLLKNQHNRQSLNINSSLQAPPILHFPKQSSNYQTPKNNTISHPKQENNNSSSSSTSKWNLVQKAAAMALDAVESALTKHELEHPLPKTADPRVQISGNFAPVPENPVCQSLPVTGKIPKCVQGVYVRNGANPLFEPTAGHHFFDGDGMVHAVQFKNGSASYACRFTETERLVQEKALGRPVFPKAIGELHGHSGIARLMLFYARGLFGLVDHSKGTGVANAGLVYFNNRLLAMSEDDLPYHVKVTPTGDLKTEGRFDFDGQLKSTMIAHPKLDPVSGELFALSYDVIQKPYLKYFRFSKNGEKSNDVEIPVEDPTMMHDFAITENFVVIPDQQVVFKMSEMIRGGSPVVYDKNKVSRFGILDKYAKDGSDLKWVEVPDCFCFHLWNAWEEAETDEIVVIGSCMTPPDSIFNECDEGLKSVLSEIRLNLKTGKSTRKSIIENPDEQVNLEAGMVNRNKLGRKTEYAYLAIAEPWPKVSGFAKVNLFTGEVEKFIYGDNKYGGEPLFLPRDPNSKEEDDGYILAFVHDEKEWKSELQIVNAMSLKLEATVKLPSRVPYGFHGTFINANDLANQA

Row | SMILES | LeCCD1a (9,10/9′,10′) Inhibition @ 100 μM (%) (LeCCD1a [1]) | LeNCED1 (11,12) Inhibition @ 100 μM (%) (LeNCED1) | unintended effects on whole Arabidopsis plants (whole Arabidopsis plants) | inhibition at 100 µM (LeCCD1a [1]) [%] | further results
1 | COc1ccc(CCC(=O)N(O)Cc2ccccc2)cc1OC [Compound D8, N-benzyl-3,4-dimethoxyphenylpropionyl hydroxamic acid] | 61 | 40 |  |  | inhibition of LeNCED1 in vitro (in words) (LeNCED1): greatest inhibition of NCED in vitro; also recorded: best 11,12 inhibitor
2 | COc1ccc(C(=O)N(O)Cc2ccc(F)cc2)cc1OC [Compound F4, N-(4-fluorobenzyl)-3,4-dimethoxybenzoyl hydroxamic acid] | 0 | 0 |  |  | 
3 | COc1ccc(CC(=O)N(O)Cc2ccccc2)cc1OC [Compound D5, N-benzyl-3,4-dimethoxyphenylacetyl hydroxamic acid] |  |  | without negative unintended effects on whole plants | > 95 | branching phenotype of whole plants (in words) (whole Arabidopsis plants): bushy appearance; also recorded: largest effect on whole Arabidopsis plants, giving the greatest number of side branches; relative inhibition of LeCCD1a in E. coli (in words) (LeCCD1a [2]): relatively weaker inhibition activity
4 | CCCCCCCCN(O)C(=O)CCc1ccc(OC)cc1 [Compound D11, N-octyl-4-methoxyphenylpropionyl hydroxamic acid] | 53 | 15 |  |  | 
5 | O=C(Cc1ccc(O)c(O)c1)N(O)Cc1ccc(F)cc1 [Compound D3, N-(4-fluorobenzyl)-3,4-dihydroxyphenylacetyl hydroxamic acid] |  |  | negative effects on growth | > 95 | inhibition of LeCCD1 in vitro (in words) (LeCCD1a [1]): high levels of inhibition of LeCCD1; also recorded: good inhibitors of the 9,10 enzymes in vitro; IC50 (LeCCD1a [1]): 800 to 900 nM; inhibition of LeNCED1 in vitro (in words) (LeNCED1): little or no inhibition of LeNCED1
6 | COc1ccc(CC(=O)N(O)Cc2ccc(F)cc2)cc1OC [Compound D6, N-(4-fluorobenzyl)-3,4-dimethoxyphenylacetyl hydroxamic acid] |  |  | without negative unintended effects on whole plants | > 95 | branching phenotype of whole plants (in words) (whole Arabidopsis plants): bushy appearance; also recorded: largest effect on whole Arabidopsis plants, giving the greatest number of side branches; relative inhibition of LeCCD1a in E. coli (in words) (LeCCD1a [2]): relatively weaker inhibition activity
7 | COc1ccc(C=CC(=O)NO)cc1 [Compound D13, 4-Methoxyphenylpropenoyl hydroxamic acid] | 46 | 13 |  |  | 
8 | COc1ccc(C=CC(=O)NO)cc1OC [Compound D12, 3,4-Dimethoxyphenylpropenoyl hydroxamic acid] | 26 | 11 |  |  | 
9 | O=C(Cc1ccc(O)cc1)N(O)Cc1ccc(F)cc1 [Compound D2, N-(4-fluorobenzyl)-4-hydroxyphenylacetyl hydroxamic acid] |  |  | without negative unintended effects on whole plants | > 95 | branching phenotype of whole plants (in words) (whole Arabidopsis plants): bushy appearance; IC50 (LeCCD1a [1]): 800 to 900 nM
10 | COc1ccc(CCC(=O)N(O)Cc2ccccc2)cc1 [Compound D9, N-benzyl-4-methoxyphenylpropionyl hydroxamic acid] |  |  |  | > 95 | 
11 | CCCCCCCCN(O)C(=O)CCc1ccc(OC)c(OC)c1 [Compound D10, N-octyl-3,4-dimethoxyphenylpropionyl hydroxamic acid] | 65 | 14 |  |  | 

From patent US9210928B2, “Plant development control composition” (Syngenta Crop Protection, LLC, priority 2008, dated 2015)
